How the values were obtained:
[1] = test system: embryonic mouse cortical cells; experiment: Functional neuronal maturation of cortical networks on microelectrode arrays (MEA recording, chronic treatment); type: cell-based; conditions: for acute effect on neuronal network activity in vitro: cortical networks on MEAs
Procedure: Cortical cells were grown on multi-well microelectrode arrays (MEAs) and treated with 10 different experimental series, including different combinations of test agents (PE, SM, LF and DHA) and the activity was recoded at 4 different time points during the 4 weeks of functional neuronal maturation Cells growing on glass slides were treated in parallel for morphological and cell population analysis. These experiments aimed to elucidate whether the test compounds affect the functional and morphological neuronal maturation […] (see FIG. 1).
All experiments were performed according to the standard operating protocols (SOPs): “SOP Preparation Frontal Cortex Mouse—Serum,” “SOP Solutions for Neuronal Cell Culture,” “SOP Cleaning and Substrate Preparations of MEAs,” “SOP Feeding neuronal cell culture,” “SOP Cell culture preparation MEAs,” “SOP Plexon Recording,” “SOP Plexon Data Analysis.”
Microelectrode Array Neurochips: THE MEA neurochips were provided by the Center for Network Neuroscience (CNNS) at the University of North Texas. These 5×5 cm^2 glass chips have a dual recording matrix with 32 passive electrodes per matrix and indium tin oxide conductors. The hydrophobic insulation material surface was activated by a brief butane flame pulse through a stainless steel mask. Thus, cell attachment on a confined adhesive region (5 mm diameter centered on the electrode array) is ensured. The activated surface regions were coated with poly-D-lysine (25 microgram/mL; 30-70 kD) and incubated overnight. […]
Primary cell culture for MEA recordings: In brief, frontal cortex tissue was harvested from embryonic day […] NMRI mice. […] Cultures on MEAs were incubated at 37° C. in a 10% CO2 atmosphere until ready for use, which usually is four weeks to three months after seeding. […]
Multichannel Recording: After establishing a stable activity pattern after 4 weeks, the neuronal networks on MEA chips are employed for substance testing. […] The signals routinely recorded by these neurochips are located in a range of 15-1800 […] . […]

[2] = test system: embryonic mouse cortical cells; experiment: Immunocytochemistry / fluorescence image analysis of neuronal network morphology (neuron number, % neurons, synaptic density); type: cell-based; conditions: chronic treatment over 4 weeks
Procedure: Primary Cell culture for immunocytochemistry and Fluorescence staining: The chronically treated cultures were grown on 24-well plates on 13 mm glass cover slides and cultured with PNGM medium including 5% FCS and gentamycin+ampicillin. The cells were treated 2× per week during ⅓ medium exchange. The complete concentration of phospholipids was replenished every time.
Immunocytochemistry and Fluorescence staining: These 24 well-plate cultures were analyzed by immunocytochemistry, fluorescence microscopy and semiautomatic quantitative image analysis at 7, 14, 21, and 28 days. […] Cortical networks were embedded with Prolong anti-fade gold (Invitrogen, Darmstadt, Germany) and images acquired with an upright fluorescence microscope (Nikon Eclipse TE200, NikonAG, Tokyo, Japan).
Image analysis: These images were analyzed by semi-automatic image quantification tools (MS Excel macro-based in house analyses; ImageJ, Rawak Software, NIH, USA). […]
The repeated treatment with LF+PE+SM+DHA affects development of neuronal network morphology: The recorded networks were fixed after the final 28 div recording and immunostained for neuronal markers. Images were taken and the cell neuronal numbers quantified by semi-automatic image analyses.

Substance: phosphatidylethanolamine [PE]
- acute effect on neuronal network activity in vitro [1]: acutely affect neuronal network activity

Substance: sphingomyelin [SM]
- acute effect on neuronal network activity in vitro [1]: acutely affect neuronal network activity
- developmental halt at later stages ([1]; repeated treatment 2x per week, DHA 20 μM, PE 100 nM, LF 300 nM, SM 100 nM, recorded at 7-10, 14, 21 and 28 div, FIG. 2): developmental halt at later stages
- synaptic density [2]: able to increase the synaptic density

— patent publication US10617701B2, “Nutritional compositions containing phosphatidylethanolamine, sphingomyelin and docosahexaenoic acid” (Mead Johnson Nutrition Company, priority 2015, dated 2020)
